Experiments:
Format in all cases: cell-based
[1] = target: T1, human R1882Q Nav1.2 (Homo sapiens, UniProt Q99250, R1882Q); test: Whole-cell patch clamp of sodium currents (INa) in CHO cells transiently expressing R1882Q Nav1.2; settings: R1882Q Nav1.2, CHO cells, mean±SEM
T1 construct: expressed in transfected cells; host or cells: CHO cells

[2] = target: T2, human wild-type (WT) Nav1.2 (Homo sapiens, UniProt Q99250); test: Whole-cell patch clamp of sodium currents (INa) in CHO cells transiently expressing wild-type Nav1.2; settings: WT Nav1.2, CHO cells, mean±SEM
T2 construct: expressed in transfected cells; host or cells: CHO cells
T2 sequence (Q99250 whole entry): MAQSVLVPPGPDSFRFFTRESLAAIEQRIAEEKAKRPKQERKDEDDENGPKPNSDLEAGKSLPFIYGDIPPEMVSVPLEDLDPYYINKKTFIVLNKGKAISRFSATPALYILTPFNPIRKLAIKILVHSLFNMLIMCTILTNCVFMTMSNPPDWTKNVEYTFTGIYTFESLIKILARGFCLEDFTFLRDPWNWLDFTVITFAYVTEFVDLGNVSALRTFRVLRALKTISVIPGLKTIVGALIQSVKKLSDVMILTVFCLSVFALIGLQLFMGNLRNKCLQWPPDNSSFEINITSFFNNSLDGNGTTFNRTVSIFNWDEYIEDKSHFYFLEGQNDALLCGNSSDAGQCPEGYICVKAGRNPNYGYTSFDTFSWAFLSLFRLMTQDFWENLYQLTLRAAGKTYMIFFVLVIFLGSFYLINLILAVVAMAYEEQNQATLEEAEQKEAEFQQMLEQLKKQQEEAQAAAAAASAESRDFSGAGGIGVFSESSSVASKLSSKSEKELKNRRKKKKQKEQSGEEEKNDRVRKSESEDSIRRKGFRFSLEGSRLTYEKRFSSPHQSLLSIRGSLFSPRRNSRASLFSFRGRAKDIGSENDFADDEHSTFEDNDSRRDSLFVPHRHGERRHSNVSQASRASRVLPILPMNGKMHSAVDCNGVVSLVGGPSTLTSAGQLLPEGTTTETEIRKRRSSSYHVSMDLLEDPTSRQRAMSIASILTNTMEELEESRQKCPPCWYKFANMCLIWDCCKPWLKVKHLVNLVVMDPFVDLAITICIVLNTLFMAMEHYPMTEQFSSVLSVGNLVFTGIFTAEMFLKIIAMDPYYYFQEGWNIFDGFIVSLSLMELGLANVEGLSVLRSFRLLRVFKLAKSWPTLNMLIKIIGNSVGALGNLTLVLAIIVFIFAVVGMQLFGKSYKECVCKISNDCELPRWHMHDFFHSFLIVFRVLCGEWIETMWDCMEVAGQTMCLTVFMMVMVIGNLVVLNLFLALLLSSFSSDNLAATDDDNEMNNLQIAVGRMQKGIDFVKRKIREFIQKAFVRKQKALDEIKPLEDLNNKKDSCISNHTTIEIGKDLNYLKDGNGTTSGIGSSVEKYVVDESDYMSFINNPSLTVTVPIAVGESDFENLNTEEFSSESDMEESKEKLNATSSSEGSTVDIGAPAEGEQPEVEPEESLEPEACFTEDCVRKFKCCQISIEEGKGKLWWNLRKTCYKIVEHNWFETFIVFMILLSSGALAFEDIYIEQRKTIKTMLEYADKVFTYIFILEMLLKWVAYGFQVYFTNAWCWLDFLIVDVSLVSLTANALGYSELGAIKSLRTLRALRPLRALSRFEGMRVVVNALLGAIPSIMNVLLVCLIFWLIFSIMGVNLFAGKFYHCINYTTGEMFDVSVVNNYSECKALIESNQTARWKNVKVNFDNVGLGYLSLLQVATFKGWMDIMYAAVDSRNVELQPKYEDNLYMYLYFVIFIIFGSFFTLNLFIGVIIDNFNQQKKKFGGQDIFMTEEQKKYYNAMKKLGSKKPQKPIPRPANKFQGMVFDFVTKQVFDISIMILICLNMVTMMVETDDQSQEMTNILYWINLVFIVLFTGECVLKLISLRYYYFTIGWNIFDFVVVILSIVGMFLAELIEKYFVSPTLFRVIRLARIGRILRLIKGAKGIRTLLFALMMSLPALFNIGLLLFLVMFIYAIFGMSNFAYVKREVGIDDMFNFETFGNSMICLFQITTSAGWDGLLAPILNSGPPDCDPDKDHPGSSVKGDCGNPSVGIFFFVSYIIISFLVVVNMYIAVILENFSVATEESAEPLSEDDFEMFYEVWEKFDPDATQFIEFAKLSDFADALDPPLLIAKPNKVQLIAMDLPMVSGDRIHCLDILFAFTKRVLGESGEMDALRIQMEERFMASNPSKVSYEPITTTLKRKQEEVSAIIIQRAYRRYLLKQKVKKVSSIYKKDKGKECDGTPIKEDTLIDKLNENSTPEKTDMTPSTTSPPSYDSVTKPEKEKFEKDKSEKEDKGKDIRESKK

[3] = target: T3, human K905N Nav1.2 (Homo sapiens, UniProt Q99250, K905N); test: Whole-cell patch clamp of sodium currents (INa) in CHO cells transiently expressing K905N Nav1.2; settings: K905N Nav1.2, CHO cells, mean±SEM
T3 construct: expressed in transfected cells; host or cells: CHO cells
T3 sequence (Q99250 whole entry K905N): as the sequence (Q99250 whole entry) above, with K905N counted along it

T1 sequence (Q99250 whole entry R1882Q): as the sequence (Q99250 whole entry) above, with R1882Q counted along it

SMILES: O=C1c2cc(-c3ccc(OC(F)(F)F)cc3)ccc2OCCN1Cc1ncccn1 [eleclazine, 4-(pyrimidin-2-ylmethyl)-7-(4-(trifluoromethoxy)phenyl)-3,4-dihydrobenzo[f][1,4]oxazepin-5(2H)-one]
- Hill slope Late INa ([1]; late INa at 100 ms): 0.64 ± 0.2
- Hill slope Peak INa ([1]; peak INa): 0.36 ± 0.14
- Hill slope Late INa ([2]; late INa at 100 ms, INaL enhanced with 3 nM ATX-II): 0.94 ± 0.06
- Hill slope Peak INa ([2]; peak INa): 0.63 ± 0.07
- Hill slope Late INa ([3]; late INa at 100 ms): 0.55 ± 0.06
- Hill slope Peak INa ([3]; peak INa): 0.78 ± 0.2

Source: patent US20200085838A1, “METHODS OF TREATING EPILEPSY AND NEURODEVELOPMENTAL DISORDERS” (Praxis Precision Medicines, Inc., priority 2017, published 2020)
